The values that follow are results of earlier work, collected in patent US12692302B2, “Uses of IL-13 antagonists for treating atopic dermatitis” (Genentech, Inc., priority 2016, dated 2026).

Read-outs that look alike come from different tables or passages of the source.

This data set concerns moderate-to-severe asthmatic patients not controlled on inhaled corticosteroids. Conditions: all doses (37.5, 125, 250 mg Q4W), cited from earlier work.

Consider “lebrikizumab: monoclonal humanized anti-IL-13 IgG4 antibody; heavy chain SEQ ID NO: 11, light chain SEQ ID NO: 12; formulated at 125 mg/mL in prefilled syringe”, for which the “reduction in the rate of asthma exacerbations” value is given as 60% (biomarker-high (serum periostin-high) patients) and 5% (biomarker-low (serum periostin-low) patients).
